Test results as given in patent publication US20240115547A1, “PSYCHOTROPIC AGENTS AND USES THEREOF” (LB PHARMACEUTICALS INC., priority 2021, published 2024).

Tested on: Dopamine (e.g., D2/D3)
Test: Dopamine RO % by raclopride PET after LB-102, various dosage regimens (Example 3)
Assay type: in vivo, human
Conditions: for Dopamine RO % (Caudate + Putamen): group mean
Procedure: Healthy subjects were dosed orally with LB102 of 50 mg QD (n=4), 75 mg QD (n=4), 100 mg QD (n=4), 50 mg SS (n=2), or 100 mg SS (n=2). Subjects were, on average, 33 years old. Subjects dosed QD were given a single dose on day 1 after which PET scans were obtained; and subjects dosed SS, i.e., steady state, were dosed once a day for 4 days and PET scans were obtained after dosing on Day 4.
Dynamic […] raclopride PET scans were obtained 0 h, 2.5 h, 7.5 h, and 23.5 h after LB-102 administration for the 50 mg and 100 mg QD treatment groups and after LB-102 administration of Day 4 for the 50 mg SS and 100 mg SS treatment groups; and 0 h, 3.5 h, 23.5 h, and 47.5 h after LB-102 administration for the 75 mg QD treatment group. Dopamine % RO were calculated using the STRM method (https://pubmed.ncbi.nlm.nih.gov/9345505/, which is incorporated herein by reference) and the combined RO % (average of caudate and putamen RO %) are shown as squares FIGS. 5A (50 mg QD), 5B (75 mg QD), 5C (100 mg QD); and FIGS. 6A (50 mg SS Day 4) and 6B (100 mg SS Day 4); and summarized in Table 3-A below.
Dynamic ^11C raclopride PET scan results for calculation of dopamine RO % were measured in caudate, putamen, thalamus, and temporal lobe of each subject tested, and are summarized in Tables 3-B to 3-F below.

[1] = 50 mg QD, Subject 1, 2.5 h after LB-102 admin.
[2] = 50 mg QD, Subject 1, 7.5 h after LB-102 admin.
[3] = 50 mg QD, Subject 1, 23.5 h after LB-102 admin.
[4] = 50 mg QD, Subject 2, 2.5 h after LB-102 admin.
[5] = 50 mg QD, Subject 2, 7.5 h after LB-102 admin.
[6] = 50 mg QD, Subject 2, 23.5 h after LB-102 admin.
[7] = 50 mg QD, Subject 3, 7.5 h after LB-102 admin.
[8] = 50 mg QD, Subject 3, 23.5 h after LB-102 admin.
[9] = 50 mg QD, Subject 4, 2.5 h after LB-102 admin.
[10] = 50 mg QD, Subject 4, 7.5 h after LB-102 admin.
[11] = 50 mg QD, Subject 4, 23.5 h after LB-102 admin.
[12] = 50 mg SS (Day 4), Subject 1, ~3 h after LB-102 admin.
[13] = 50 mg SS (Day 4), Subject 1, ~8 h after LB-102 admin.
[14] = 50 mg SS (Day 4), Subject 1, ~24 h after LB-102 admin.
[15] = 50 mg SS (Day 4), Subject 2, ~3 h after LB-102 admin.
[16] = 50 mg SS (Day 4), Subject 2, ~8 h after LB-102 admin.
[17] = 50 mg SS (Day 4), Subject 2, ~24 h after LB-102 admin.
[18] = 75 mg QD, Subject 1, 3.5 h after LB-102 admin.
[19] = 75 mg QD, Subject 1, 23.5 h after LB-102 admin.
[20] = 75 mg QD, Subject 1, 47.5 h after LB-102 admin.
[21] = 75 mg QD, Subject 2, 3.5 h after LB-102 admin.
[22] = 75 mg QD, Subject 2, 23.5 h after LB-102 admin.
[23] = 75 mg QD, Subject 2, 47.5 h after LB-102 admin.

CCN1CCCC1CNC(=O)c1cc(S(=O)(=O)CC)c(NC)cc1OC (stereo not shown) [LB-102]
Dopamine RO % (Caudate + Putamen) (50 mg QD, 0 h after LB-102 administration): 0% | Dopamine RO % (Caudate + Putamen) (50 mg QD, 3 h after LB-102 administration): 24% | Dopamine RO % (Caudate + Putamen) (50 mg QD, 8 h after LB-102 administration): 38% | Dopamine RO % (Caudate + Putamen) (50 mg QD, 24 h after LB-102 administration): 42% | Dopamine RO % Caudate [1]: 26% | Dopamine RO % Putamen [1]: 23% | Dopamine RO % Temporal lobe [1]: 25% | Dopamine RO % Thalamus [1]: 40% | Dopamine RO % Caudate [2]: 52% | Dopamine RO % Putamen [2]: 47% | Dopamine RO % Temporal lobe [2]: 32% | Dopamine RO % Thalamus [2]: 48% | Dopamine RO % Caudate [3]: 58% | Dopamine RO % Putamen [3]: 48% | Dopamine RO % Temporal lobe [3]: 30% | Dopamine RO % Thalamus [3]: 39% | Dopamine RO % Caudate [4]: 28% | Dopamine RO % Putamen [4]: 25% | Dopamine RO % Temporal lobe [4]: 16% | Dopamine RO % Thalamus [4]: 42% | Dopamine RO % Caudate [5]: 42% | Dopamine RO % Putamen [5]: 37% | Dopamine RO % Temporal lobe [5]: 14% | Dopamine RO % Thalamus [5]: 31% | Dopamine RO % Caudate [6]: 45% | Dopamine RO % Putamen [6]: 36% | Dopamine RO % Temporal lobe [6]: 11% | Dopamine RO % Thalamus [6]: 23% | Dopamine RO % Caudate [7]: 36% | Dopamine RO % Putamen [7]: 25% | Dopamine RO % Temporal lobe [7]: 20% | Dopamine RO % Thalamus [7]: 42% | Dopamine RO % Caudate [8]: 53% | Dopamine RO % Putamen [8]: 37% | Dopamine RO % Temporal lobe [8]: 18% | Dopamine RO % Thalamus [8]: 45% | Dopamine RO % Caudate [9]: 23% | Dopamine RO % Putamen [9]: 19% | Dopamine RO % Temporal lobe [9]: 23% | Dopamine RO % Thalamus [9]: 26% | Dopamine RO % Caudate [10]: 43% | Dopamine RO % Putamen [10]: 34% | Dopamine RO % Temporal lobe [10]: 43% | Dopamine RO % Thalamus [10]: 28% | Dopamine RO % Caudate [11]: 45% | Dopamine RO % Putamen [11]: 34% | Dopamine RO % Temporal lobe [11]: 45% | Dopamine RO % Thalamus [11]: 18% | Dopamine RO % Caudate [12]: 75% | Dopamine RO % Putamen [12]: 67% | Dopamine RO % Temporal lobe [12]: 18% | Dopamine RO % Thalamus [12]: 44% | Dopamine RO % Caudate [13]: 78% | Dopamine RO % Putamen [13]: 69% | Dopamine RO % Temporal lobe [13]: 17% | Dopamine RO % Thalamus [13]: 40% | Dopamine RO % Caudate [14]: 75% | Dopamine RO % Putamen [14]: 66% | Dopamine RO % Temporal lobe [14]: 35% | Dopamine RO % Thalamus [14]: 30% | Dopamine RO % Caudate [15]: 74% | Dopamine RO % Putamen [15]: 66% | Dopamine RO % Temporal lobe [15]: 26% | Dopamine RO % Thalamus [15]: 37% | Dopamine RO % Caudate [16]: 76% | Dopamine RO % Putamen [16]: 70% | Dopamine RO % Temporal lobe [16]: 25% | Dopamine RO % Thalamus [16]: 43% | Dopamine RO % Caudate [17]: 73% | Dopamine RO % Putamen [17]: 63% | Dopamine RO % Temporal lobe [17]: 34% | Dopamine RO % Thalamus [17]: 56% | Dopamine RO % (Caudate + Putamen) (50 mg SS (once a day for 4 days), 3 h after Day 4 administration): 69% | Dopamine RO % (Caudate + Putamen) (50 mg SS (once a day for 4 days), 24 h after Day 4 administration): 68% | average dopamine (e.g., D2/D3) RO % in caudate, putamen, and thalamus (50 mg SS and 100 mg SS, at least from Day 4 since the treatment began): significantly stabilized | Dopamine RO % (Caudate + Putamen) (75 mg QD, 0 h after LB-102 administration): 0% | Dopamine RO % (Caudate + Putamen) (75 mg QD, 3 h after LB-102 administration): 33% | Dopamine RO % (Caudate + Putamen) (75 mg QD, 24 h after LB-102 administration): 55% | Dopamine RO % Caudate [18]: 27% | Dopamine RO % Putamen [18]: 20% | Dopamine RO % Temporal lobe [18]: 12% | Dopamine RO % Thalamus [18]: 31% | Dopamine RO % Caudate [19]: 70% | Dopamine RO % Putamen [19]: 52% | Dopamine RO % Temporal lobe [19]: 45% | Dopamine RO % Thalamus [19]: 64% | Dopamine RO % Caudate [20]: 53% | Dopamine RO % Putamen [20]: 38% | Dopamine RO % Temporal lobe [20]: 4% | Dopamine RO % Thalamus [20]: 16% | Dopamine RO % Caudate [21]: 53% | Dopamine RO % Putamen [21]: 48% | Dopamine RO % Temporal lobe [21]: 21% | Dopamine RO % Thalamus [21]: 44% | Dopamine RO % Caudate [22]: 58% | Dopamine RO % Putamen [22]: 53% | Dopamine RO % Temporal lobe [22]: 17% | Dopamine RO % Thalamus [22]: 37% | Dopamine RO % Caudate [23]: 45% | Dopamine RO % Putamen [23]: 39% | Dopamine RO % Temporal lobe [23]: 16% | Dopamine RO % Thalamus [23]: 25% | Dopamine RO % Caudate (75 mg QD, Subject 3, 3.5 h after LB-102 admin.): 57%
